# From US5260050A, “Methods and compositions for magnetic resonance imaging comprising superparamagnetic ferromagnetically coupled chromium complexes” (priority 1990, dated 1993)
# Columns and labels:
# [1] = typically 15 MHz; cited from earlier work
# [2] = system: BRO-strain human malignant melanomas; test: MR imaging of human melanoma xenografts in nude mice; type: in vivo, human; Swiss nude mice; conditions: i.v.
# Method: The strong paramagnetic metal ion, gadolinium (Gd^+3), was chelated stoichiometrically to DTPA-Dextran 70 polymer, whose preparation is described in Example 1, paragraph 2 (improved formulation). Swiss nude mice were inoculated with BRO-strain human malignant melanomas, and these were allowed to grow to a 1-1.5 cm diameter. Moderately T1-weighted MR imaging (TR=500 msec, TE=40 msec) was performed in a standard Diasonics™ medical imager and a 30-cm RF head coil, before and after intravenous injection of equivalent doses of Gd-DTPA-Dextran-70 (0.03 mmol Gd/kg) or Gd-DTPA (0.1 mmol/kg) contrast agent. […] It will also be recognized that much lower doses of the stronger superparamagnetics (including doses below about 0.01 mmol/kg, versus 0.1 mmol/kg for Gd-DTPA) can be used to obtain effective MRI contrast enhancement; and that much faster, more heavily T1-weighted pulse sequences can be implemented in the presence of superparamagnetic-polymer conjugates or paired-ion complexes.
# tumor = conditions: in vivo; cited from earlier work
# [3] = cited from earlier work
# [4] = in vivo; cited from earlier work
# VX2 carcinoma cells = test: Histochemical platinum staining of perfused VX2 tumors; type: in vivo, rabbit; conditions: intraarterial perfusion
# Method: At 5 to 15 minutes postinjection, the animals were sacrificed, their lungs removed and fixed with intratracheal buffered formalin, tissue sections cut at 8 microns thickness, and the sections stained using a newly devised method for platinum which comprises a microwave-augmented iron-type stain (60° C.×2 minute×3 cycles) using a 1:1 mixture of 2% ferriferocyanide reagent and 4% HCl. […] To those skilled in the art, additional evidence for selective lung localization, was obtained by injecting intravenously, analogous (subembolizing) heparin-coated nanoparticles containing encapsulated amphotericin B, into identical mice, homogenizing the lungs, and documenting an 8-fold increment in drug levels over native amphotericin B (deoxycholate formulation, Fungizone; Squibb) recovered at 1 to 3 hours postinjection.
# Additional documentation for maintenance of the cisplatin-carrier paired-ion complex in vivo was obtained as follows. […] Animals were sacrificed at 15 minutes, and the tumors and organs were homogenized extracted and analyzed by atomic absorption for tissue platinum concentrations, as shown in Table 1.
# Additionally, histochemical platinum stains were performed on the tumor tissues, as described in Example 7.
# Microinhomogeneities of tissue heating represent a major problem in hyperthermia treatment of tumors. […]
# [5] = Permeability of tumor vascular walls; conditions: transport by a polymeric carrier
# tumor cells = test: Histology of heparin carrier transport into tumor cells; conditions: histologically (not shown)
compound,measurement,setting,value
"CNC[C@H](O)[C@@H](O)[C@H](O)[C@H](O)CO.CNC[C@H](O)[C@@H](O)[C@H](O)[C@H](O)CO.O=C([O-])CN(CCN(CC(=O)[O-])CC(=O)O)CCN(CC(=O)[O-])CC(=O)O.[Gd+3] [Gd-DTPA, gadolinium-diethylenetriaminepentaacetate (Gd-DTPA) dimeglumine]",Relaxivity at higher clinical radio frequencies,[1],moderate decrease in relaxivity
same,Fading of tumor enhancement,"[2]; 0.1 mmol/kg, by one hour",completely faded
same,Postcontrast interval at which optimal tumor enhancement began,"[2]; 0.03 mmol Gd/kg (Gd-DTPA-dextran) or 0.1 mmol/kg (Gd-DTPA), TR=500, TE=40 msec",10 min
same,Retention in tumor interstitium / tumor enhancement of comparator,tumor,10 to 45 min
same,Blood clearance half-time,[3]; bloodstream,20 min
same,Fading of tumor contrast enhancement,[3]; by 30 minutes postcontrast,almost complete fading (tumor clearance)
same,Acute hepatic uptake interval,[3]; in vivo,5 to 45 min
same,Postinjection contrast interval / imaging window,[3]; in vivo,10 to 45 min
same,Retained fraction,[3]; in vivo,less than 0.5%
same,Fraction sequestered in the kidneys,[3]; intravenous,> 90%
same,"Biodistribution, share of total body water",[4],ca. 35 % of total body water
"N.N.[Cl][Pt][Cl] [cisplatin, cis-dichlorodiamine platinum]",Aggregated staining,VX2 carcinoma cells,absent
OCC(O)CO [glycerol],Permeability of tumor vascular walls,[5],increases the permeability of the vascular walls in the tumorous region
heparin,Intracellular transport in tumor cells,tumor cells,transported inside tumor cells
